Assay results from patent US11311598B2, “Peptides and analogs for use in the treatment of oral mucositis” (Soligenix, Inc., priority 2013, dated 2022).
“Also recorded” adds a separate entry of the source. Where no end group is shown, it is not given here.

Key:
male C3H/HeN mice = experiment: chemotherapy-induced oral and gastrointestinal mucositis in the mouse; type: in vivo
Experimental: In each study, 5-fluorouracil (60 mg/kg IP) was administered to male C3H/HeN mice on Days −4 and −2. […] […] Body weights were also measured daily and colitis severity was determined by video endoscopy on Days 4 and 7. In the first study, RIVPA (SEQ ID NO. 5) (25 mg/kg IV) was administered either once on Day −4 immediately prior to chemotherapy, twice on Days −4 and −2 immediately after chemotherapy or 3 times on Days −1, 2 and 5. […] In the second study, RIVPA (SEQ ID NO. 5) (25 mg/kg IV) was administered on either Days −1, 2 and 5, Days −1, 1 and 3 or Days 0, 2, and 4. […] In the third study, RIVPA (SEQ ID NO. 5) (25 or 5 mg/kg IV, as indicated) was administered either on Days −1, 2 and 5 or on Days 1 and 3. […] Statistical significance was assessed for oral mucositis using a chi-square analysis and for body weight area under the curve (AUC) with an ANOVA on ranks. […] Treatment with R(tBg)V1KR(tBg)V2 (SEQ ID NO. 91) and RIV(mp2)A-NH2 (SEQ ID NO. 92) was administered on Days −1 and 2 at a dose of 25 mg/kg IV.

MRSA = MRSA skin infection model; type: in vivo, mouse
Experimental: Infection was initiated 1 day after the hair was removed from the dorsal area of each mouse. RIVPA (SEQ ID NO. 5) (25 mg/kg IV or 100 mg/kg SC) was administered 4 h prior to infection and at various times after infection as indicated. Oral linezolid was used as the comparator and was administered daily at 12.5 mg/kg. On Day 0 (at −1 h) each mouse was anesthetized using isoflurane and the shaved dorsal skin was damaged by 7 consecutive applications and removals of surgical tape. This lesion was then immediately infected by topical administration of 10 μL of the bacterial suspension, delivering a total challenge of 7.6 login cfu per mouse. Efficacy was evaluated by measurement of the bacterial burden in punch biopsies of the skin at 48 h (FIG. 14—panel A) and 96 h (FIG. 14—panel B) following the bacterial challenge and by macroscopic assessment of digital images of the skin by a blinded, board-certified pathologist at 48 h (FIG. 14—panel C) and 96 h (FIG. 14—panel D) after infection. […] The mean bacterial burden for each therapeutic group was statistically compared to that of its time-matched saline control through use of a t-test comparison of means, assuming unequal variances, performed on Excel. Comparisons which returned a p value […] were considered statistically different.

healthy volunteers = experiment: Phase 1 study in healthy volunteers, safety (SAD and MAD); type: in vivo, human
From the text: Clinical experience with RIVPA (SEQ ID NO. 5) was obtained in a Phase 1 Study. The primary objective of the study was to determine the maximum tolerated dose (MTD) of single and repeat ascending doses of RIVPA (SEQ ID NO. 5) injectable solution following IV administration in healthy volunteers. The secondary objectives of this study included the assessment of the dose limiting toxicity (DLT), safety, PK and pharmacodynamic (PD) profiles of RIVPA (SEQ ID NO. 5) after single and repeated ascending IV doses of RIVPA (SEQ ID NO. 5). The study was divided into 2 phases: a single-ascending dose (SAD) phase and a multiple-ascending dose (MAD) phase.
Single IV doses of RIVPA (SEQ ID NO. 5) were well tolerated up to the maximum tested (8 mg/kg) and daily IV doses were well tolerated up to the maximum tested (6.5 mg/kg for 7 days).
The most frequently reported TEAEs (observed in more than one subject who received RIVPA (SEQ ID NO. 5) and in a higher proportion (%) than placebo subjects) were study treatment procedure-related events (General Disorders and Administration Site Conditions) such as vessel puncture site haematoma, vessel puncture site reaction and vessel puncture site pain. All vessel puncture-related events were mild and determined to be unrelated to study treatment by the QI. The second most frequently reported TEAEs were Nervous System Disorders, specifically headache and dizziness; these events were only mild to moderate. All other TEAEs were reported by only 1 subject at any given dose level (maximum of 3 dose levels).
The incidence of “possibly-related” events was also higher in the 2 highest dose levels. However, due to the small sample sizes (4 subjects received active treatment in each cohort), it was not possible to conclude whether the results definitely represented a dose-response. The majority of the TEAEs were not related to study treatment and were mild in severity with only one event reported as moderate. The most frequently reported TEAEs for subjects who received RIVPA (SEQ ID NO. 5) were General Disorders and Administration Site Conditions (i.e., procedure-related events) such as vessel puncture site haematoma, vessel puncture site reaction, and vessel puncture site pain. All vessel puncture-related events were mild and judged to be unrelated to treatment. Increased alanine aminotransferase (ALT) and back pain were reported by 3 (15.0%) subjects who received RIVPA (SEQ ID NO. 5) and these events were observed by only one (10.0%) subject who received the placebo.

[1] = mouse, 5-fluorouracil chemotherapy model, RIVPA IV
[2] = multiple ascending dose phase, subjects who received RIVPA

Substance: RIVPA-NH2 [RIVPA (SEQ ID NO. 5), RIVPA]
- treatment effectiveness on mucositis (male C3H/HeN mice; first study, 25 mg/kg IV 3 times on Days −1, 2 and 5): most effective
- duration of severe oral mucositis (male C3H/HeN mice; mouse, 5-fluorouracil 60 mg/kg IP Days −4 and −2, chemical burn of tongue Day 0, RIVPA IV): reduces; also recorded: statistically significant reduction
- body weight loss (male C3H/HeN mice; [1]): reduces
- severity of colitis (video endoscopy) (male C3H/HeN mice; [1]): reduces; also recorded: trend towards reduced colitis
- efficacy at decreased dose levels (male C3H/HeN mice; third study, 5 vs 25 mg/kg IV): decreased efficacy
- treatment effectiveness on mucositis (male C3H/HeN mice; third study, dosing every third day (Days −1, 2 and 5)): most effective
- skin healing (MRSA; 25 mg/kg IV or 100 mg/kg SC, 4 h prior to infection and after): accelerating skin healing
- bacterial load in skin punch biopsies relative to control (MRSA; 48 or 96 h after bacterial challenge): neither linezolid nor RIVPA (SEQ ID NO. 5) reduced bacterial load
- resolution of tissue damage in topically MRSA-infected skin (MRSA; FIG. 14): enhances
- vital sign measurements, clinical laboratory or ECG results versus placebo (healthy volunteers; Phase 1): No safety concerns or significant differences
- deaths and serious Adverse Events (healthy volunteers; Phase 1, SAD and MAD): no deaths and no clinically significant, severe, or serious Adverse Events
- dose limiting toxicities (DLTs) (healthy volunteers; Phase 1, SAD and MAD): no dose limiting toxicities
- MTD (healthy volunteers; either phase of the trial): not reached
- daily IV doses well tolerated up to the maximum tested (healthy volunteers; healthy volunteers, daily for 7 days): ≤ 6.5 mg/kg
- single IV doses well tolerated up to the maximum tested (healthy volunteers; healthy volunteers, single-ascending dose phase): ≤ 8 mg/kg
- incidence of TEAEs (healthy volunteers; multiple ascending dose phase, 4.5 and 6.5 mg/kg/day): highest incidence
- Increased alanine aminotransferase (ALT) (healthy volunteers; [2]): 3 (15.0%) subjects
- back pain (healthy volunteers; [2]): 3 (15.0%) subjects
- incidence of TEAEs (healthy volunteers; single ascending dose phase): not dose-related
